≈ marks a conversion by molar mass, not a printed value.
Experiments:
Format in all cases: functional
[1] = tested on: Staphylococcus aureus; experiment: Antibacterial activity against Staphylococcus aureus after 3 to 7 days by cup diffusion method
[2] = tested on: Bacillus subtilis; experiment: Antibacterial activity against Bacillus subtilis after 3 to 7 days by cup diffusion method
[3] = tested on: Escherichia coli; experiment: Antibacterial activity against Escherichia coli after 3 to 7 days by cup diffusion method
[4] = tested on: Pseudomonas aeruginosa; experiment: Antibacterial activity against Pseudomonas aeruginosa after 3 to 7 days by cup diffusion method
[5] = tested on: Mycolicibacterium phlei; experiment: Antibacterial activity against Mycobacterium phlei clinical isolate after 3 to 7 days by cup diffusion method
[6] = tested on: Aggregatibacter actinomycetemcomitans; experiment: Antibacterial activity against Aggregatibacter actinomycetemcomitans ATCC 29524 after 3 to 7 days by cup diffusion method
[7] = tested on: Staphylococcus aureus; experiment: Antibacterial activity against Staphylococcus aureus assessed as zone of inhibition at 10 mg/ml after 3 to 7 days by cup diffusion method; details: read-out: IZ
[8] = tested on: Bacillus subtilis; experiment: Antibacterial activity against Bacillus subtilis assessed as zone of inhibition at 10 mg/ml after 3 to 7 days by cup diffusion method; details: read-out: IZ
[9] = tested on: Escherichia coli; experiment: Antibacterial activity against Escherichia coli assessed as zone of inhibition at 10 mg/ml after 3 to 7 days by cup diffusion method; details: read-out: IZ
[10] = tested on: Pseudomonas aeruginosa; experiment: Antibacterial activity against Pseudomonas aeruginosa assessed as zone of inhibition at 10 mg/ml after 3 to 7 days by cup diffusion method; details: read-out: IZ
[11] = tested on: Mycolicibacterium phlei; experiment: Antibacterial activity against Mycobacterium phlei clinical isolate assessed as zone of inhibition at 10 mg/ml after 3 to 7 days by cup diffusion method; details: read-out: IZ
[12] = tested on: Aggregatibacter actinomycetemcomitans; experiment: Antibacterial activity against Aggregatibacter actinomycetemcomitans ATCC 29524 assessed as zone of inhibition at 10 mg/ml after 3 to 7 days by cup diffusion method; details: read-out: IZ
[13] = tested on: Escherichia coli; experiment: Antibacterial activity against Escherichia coli
[14] = tested on: Staphylococcus aureus; experiment: Antibacterial activity against Staphylococcus aureus
[15] = Staphylococcus aureus, read-out: MIC
[16] = Bacillus subtilis, read-out: MIC
[17] = Escherichia coli, read-out: MIC
[18] = Pseudomonas aeruginosa, read-out: MIC
[19] = Mycolicibacterium phlei, read-out: MIC
[20] = Aggregatibacter actinomycetemcomitans, ATCC 29524, read-out: MIC

MIC [1, 15] [µM]	MIC [2, 16] [µM]	MIC [3, 17] [µM]	MIC [4, 18] [µM]	MIC [5, 19] [µM]	MIC [6, 20] [µM]	MIC [1]	MIC [2]	MIC [3]	MIC [4]	MIC [5]	MIC [6]	Structure (SMILES)	zone of inhibition at 10000 µg/mL [7] [mm]	zone of inhibition at 10000 µg/mL [8] [mm]	zone of inhibition at 10000 µg/mL [9] [mm]	zone of inhibition at 10000 µg/mL [10] [mm]	zone of inhibition at 10000 µg/mL [11] [mm]	zone of inhibition at 10000 µg/mL [12] [mm]	MIC [13] [µg/mL]	MIC [14] [µg/mL]
3.68 to 6.3 (≈ 1.73 to 2.97 µg/mL)	3.68 to 6.3 (≈ 1.73 to 2.97 µg/mL)	3.68 to 6.3 (≈ 1.73 to 2.97 µg/mL)	3.68 to 6.3 (≈ 1.73 to 2.97 µg/mL)	3.68 to 6.3 (≈ 1.73 to 2.97 µg/mL)	3.68 to 6.3 (≈ 1.73 to 2.97 µg/mL)							CCn1cc(-c2nc(NC(=O)c3ccc(F)cc3)n[nH]2)c(=O)c2cc(Br)c(C)nc21	20 to 40	20 to 40	20 to 40	20 to 40	20 to 40	20 to 40		
3.68 to 6.3 (≈ 1.68 to 2.87 µg/mL)	3.68 to 6.3 (≈ 1.68 to 2.87 µg/mL)	3.68 to 6.3 (≈ 1.68 to 2.87 µg/mL)	3.68 to 6.3 (≈ 1.68 to 2.87 µg/mL)	3.68 to 6.3 (≈ 1.68 to 2.87 µg/mL)	3.68 to 6.3 (≈ 1.68 to 2.87 µg/mL)							CCn1cc(-c2nc(/N=C/c3ccc(F)cc3)n[nH]2)c(=O)c2cc(Br)c(C)nc21	20 to 40	20 to 40	20 to 40	20 to 40	20 to 40	20 to 40		
												O=C(O)c1cn(C2CC2)c2c(cc(F)c3nn(CN4CCCC4)c(=S)n32)c1=O							0.125 to 8 (≈ 0.31 to 19.8 µM)	0.125 to 8 (≈ 0.31 to 19.8 µM)
						>=0.031 - 32 ug ml-1	>=0.031 - 32 ug ml-1	>=0.031 - 32 ug ml-1	>=0.031 - 32 ug ml-1	>=0.031 - 32 ug ml-1	>=0.031 - 32 ug ml-1	CCn1cc(-c2nc(NC(=O)CCl)n[nH]2)c(=O)c2ccc(C)nc21	20 to 40	20 to 40	20 to 40	20 to 40	20 to 40	20 to 40		
						>=0.031 - 32 ug ml-1	>=0.031 - 32 ug ml-1	>=0.031 - 32 ug ml-1	>=0.031 - 32 ug ml-1	>=0.031 - 32 ug ml-1	>=0.031 - 32 ug ml-1	CCn1cc(-c2nc(/N=C/c3ccc(OC)cc3)n[nH]2)c(=O)c2ccc(C)nc21	20 to 40	20 to 40	20 to 40	20 to 40	20 to 40	20 to 40		
3.68 to 6.3 (≈ 1.61 to 2.75 µg/mL)	3.68 to 6.3 (≈ 1.61 to 2.75 µg/mL)	3.68 to 6.3 (≈ 1.61 to 2.75 µg/mL)	3.68 to 6.3 (≈ 1.61 to 2.75 µg/mL)	3.68 to 6.3 (≈ 1.61 to 2.75 µg/mL)	3.68 to 6.3 (≈ 1.61 to 2.75 µg/mL)							CCn1cc(-c2nc(/N=C/c3ccccc3)n[nH]2)c(=O)c2cc(Br)c(C)nc21	20 to 40	20 to 40	20 to 40	20 to 40	20 to 40	20 to 40		
						>=0.031 - 32 ug ml-1	>=0.031 - 32 ug ml-1	>=0.031 - 32 ug ml-1	>=0.031 - 32 ug ml-1	>=0.031 - 32 ug ml-1	>=0.031 - 32 ug ml-1	CCn1cc(-c2nc(/N=C/c3ccc(Cl)cc3)n[nH]2)c(=O)c2ccc(C)nc21	20 to 40	20 to 40	20 to 40	20 to 40	20 to 40	20 to 40		
3.68 to 6.3 (≈ 1.72 to 2.94 µg/mL)	3.68 to 6.3 (≈ 1.72 to 2.94 µg/mL)	3.68 to 6.3 (≈ 1.72 to 2.94 µg/mL)	3.68 to 6.3 (≈ 1.72 to 2.94 µg/mL)	3.68 to 6.3 (≈ 1.72 to 2.94 µg/mL)	3.68 to 6.3 (≈ 1.72 to 2.94 µg/mL)							CCn1cc(-c2nc(/N=C/c3ccc(OC)cc3)n[nH]2)c(=O)c2cc(Br)c(C)nc21	20 to 40	20 to 40	20 to 40	20 to 40	20 to 40	20 to 40		
							>=0.031 - 32 ug ml-1	>=0.031 - 32 ug ml-1	>=0.031 - 32 ug ml-1	>=0.031 - 32 ug ml-1	>=0.031 - 32 ug ml-1	CCn1cc(-c2nc(/N=C/c3ccccc3O)n[nH]2)c(=O)c2ccc(C)nc21	20 to 40	20 to 40	20 to 40	20 to 40	20 to 40	20 to 40		
						>=0.031 - 32 ug ml-1	>=0.031 - 32 ug ml-1	>=0.031 - 32 ug ml-1	>=0.031 - 32 ug ml-1	>=0.031 - 32 ug ml-1	>=0.031 - 32 ug ml-1	CCn1cc(-c2nc(NC(=O)c3ccc(OC)cc3)n[nH]2)c(=O)c2ccc(C)nc21	20 to 40	20 to 40	20 to 40	20 to 40	20 to 40	20 to 40		

From ChEMBL document CHEMBL4346717, “1,2,4-Triazole-quinoline/quinolone hybrids as potential anti-bacterial agents” (Eur J Med Chem, 2019)
